ChEMBL document CHEMBL4017512 (J Med Chem, 2017)

How the values were obtained:
HCT-116 = assay: Antiproliferative activity against human HCT116 cells after 72 hrs by phosphatase assay; type: functional, cell-based; details: HCT-116, 72 h
[1] = Cytotoxicity against human HCT116/VM46 cells assessed as reduction in cell viability after 72 hrs by phosphatase assay; type: cell-based; details: HCT-116/VM46, 72 h
L1210 = assay: Antiproliferative activity against mouse L1210 cells after 72 hrs by phosphatase assay; type: functional, cell-based; details: L1210, 72 h

SMILES	IC50 (HCT-116) [nM]	IC50 (L1210) [nM]	IC50 [1] [nM]
CC[C@]1(NC(=O)c2ccc(OC)cc2)C[C@H]2CN(CCc3c([nH]c4ccccc34)[C@@](C(=O)OC)(c3cc4c(cc3OC)N(C)[C@H]3[C@@](O)(C(=O)OC)[C@H](OC(C)=O)[C@]5(CC)C=CCN6CC[C@]43[C@@H]65)C2)C1	0.3	0.25	7.6
CC[C@]1(NC(=O)c2ccc3ccoc3c2)C[C@H]2CN(CCc3c([nH]c4ccccc34)[C@@](C(=O)OC)(c3cc4c(cc3OC)N(C)[C@H]3[C@@](O)(C(=O)OC)[C@H](OC(C)=O)[C@]5(CC)C=CCN6CC[C@]43[C@@H]65)C2)C1	2.2	3.3	6.5
CC[C@]1(NC(=O)c2ccc(NC(=O)OC(C)(C)C)cc2)C[C@H]2CN(CCc3c([nH]c4ccccc34)[C@@](C(=O)OC)(c3cc4c(cc3OC)N(C)[C@H]3[C@@](O)(C(=O)OC)[C@H](OC(C)=O)[C@]5(CC)C=CCN6CC[C@]43[C@@H]65)C2)C1	0.3	0.3	30
CC[C@]1(NC(=O)c2ccc(C)c(NC(=O)OC(C)(C)C)c2)C[C@H]2CN(CCc3c([nH]c4ccccc34)[C@@](C(=O)OC)(c3cc4c(cc3OC)N(C)[C@H]3[C@@](O)(C(=O)OC)[C@H](OC(C)=O)[C@]5(CC)C=CCN6CC[C@]43[C@@H]65)C2)C1	7.1	6	90
CCOc1ccc(C(=O)N[C@@]2(CC)C[C@H]3CN(CCc4c([nH]c5ccccc45)[C@@](C(=O)OC)(c4cc5c(cc4OC)N(C)[C@H]4[C@@](O)(C(=O)OC)[C@H](OC(C)=O)[C@]6(CC)C=CCN7CC[C@]54[C@@H]76)C3)C2)cc1Br	6.2	3.9	50
CC[C@]1(NC(=O)/C=C/c2ccccc2)C[C@H]2CN(CCc3c([nH]c4ccccc34)[C@@](C(=O)OC)(c3cc4c(cc3OC)N(C)[C@H]3[C@@](O)(C(=O)OC)[C@H](OC(C)=O)[C@]5(CC)C=CCN6CC[C@]43[C@@H]65)C2)C1	0.9	0.8	20
CC[C@]1(NC(=O)c2ccc(OC)c(OC(F)(F)F)c2)C[C@H]2CN(CCc3c([nH]c4ccccc34)[C@@](C(=O)OC)(c3cc4c(cc3OC)N(C)[C@H]3[C@@](O)(C(=O)OC)[C@H](OC(C)=O)[C@]5(CC)C=CCN6CC[C@]43[C@@H]65)C2)C1	2.2	1.7	17
CC[C@]1(NC(=O)c2ccc3c(c2)CCCCC3)C[C@H]2CN(CCc3c([nH]c4ccccc34)[C@@](C(=O)OC)(c3cc4c(cc3OC)N(C)[C@H]3[C@@](O)(C(=O)OC)[C@H](OC(C)=O)[C@]5(CC)C=CCN6CC[C@]43[C@@H]65)C2)C1	4.8	6.1	35
CC[C@]1(NC(=O)c2csc3ccccc23)C[C@H]2CN(CCc3c([nH]c4ccccc34)[C@@](C(=O)OC)(c3cc4c(cc3OC)N(C)[C@H]3[C@@](O)(C(=O)OC)[C@H](OC(C)=O)[C@]5(CC)C=CCN6CC[C@]43[C@@H]65)C2)C1	5.7	5.2	20
CC[C@]1(NS(=O)(=O)c2ccc(OC)cc2)C[C@H]2CN(CCc3c([nH]c4ccccc34)[C@@](C(=O)OC)(c3cc4c(cc3OC)N(C)[C@H]3[C@@](O)(C(=O)OC)[C@H](OC(C)=O)[C@]5(CC)C=CCN6CC[C@]43[C@@H]65)C2)C1	30	35	240
CC[C@]1(NC(=O)c2ccc3cccc(OC)c3c2)C[C@H]2CN(CCc3c([nH]c4ccccc34)[C@@](C(=O)OC)(c3cc4c(cc3OC)N(C)[C@H]3[C@@](O)(C(=O)OC)[C@H](OC(C)=O)[C@]5(CC)C=CCN6CC[C@]43[C@@H]65)C2)C1	13	10	70
CCCCCC(=O)N[C@@]1(CC)C[C@H]2CN(CCc3c([nH]c4ccccc34)[C@@](C(=O)OC)(c3cc4c(cc3OC)N(C)[C@H]3[C@@](O)(C(=O)OC)[C@H](OC(C)=O)[C@]5(CC)C=CCN6CC[C@]43[C@@H]65)C2)C1	40	55	450
CC[C@]1(NC(=O)c2ccc(C3CCCCC3)cc2)C[C@H]2CN(CCc3c([nH]c4ccccc34)[C@@](C(=O)OC)(c3cc4c(cc3OC)N(C)[C@H]3[C@@](O)(C(=O)OC)[C@H](OC(C)=O)[C@]5(CC)C=CCN6CC[C@]43[C@@H]65)C2)C1	30	40	60
CC[C@]1(NC(=O)/C=C/c2ccncc2)C[C@H]2CN(CCc3c([nH]c4ccccc34)[C@@](C(=O)OC)(c3cc4c(cc3OC)N(C)[C@H]3[C@@](O)(C(=O)OC)[C@H](OC(C)=O)[C@]5(CC)C=CCN6CC[C@]43[C@@H]65)C2)C1	0.7	0.6	50
CC[C@]1(NC(=O)C2CCOCC2)C[C@H]2CN(CCc3c([nH]c4ccccc34)[C@@](C(=O)OC)(c3cc4c(cc3OC)N(C)[C@H]3[C@@](O)(C(=O)OC)[C@H](OC(C)=O)[C@]5(CC)C=CCN6CC[C@]43[C@@H]65)C2)C1	35	70	3500
CC[C@]1(N=[N+]=[N-])C[C@H]2CN(CCc3c([nH]c4ccccc34)[C@@](C(=O)OC)(c3cc4c(cc3OC)N(C)[C@H]3[C@@](O)(C(=O)OC)[C@H](OC(C)=O)[C@]5(CC)C=CCN6CC[C@]43[C@@H]65)C2)C1			5500
CC[C@]1(N)C[C@H]2CN(CCc3c([nH]c4ccccc34)[C@@](C(=O)OC)(c3cc4c(cc3OC)N(C)[C@H]3[C@@](O)(C(=O)OC)[C@H](OC(C)=O)[C@]5(CC)C=CCN6CC[C@]43[C@@H]65)C2)C1			> 10000
CC[C@@H]1C[C@H]2CN(CCc3c([nH]c4ccccc34)[C@@](C(=O)OC)(c3cc4c(cc3OC)N(C)[C@H]3[C@@](O)(C(=O)OC)[C@H](OC(C)=O)[C@]5(CC)C=CCN6CC[C@]43[C@@H]65)C2)C1 [ROSEAMINE]			600

More lines, main results first:

IC50 (HCT-116) [nM]	IC50 (L1210) [nM]	SMILES	IC50 [1] [nM]
20	40	CC[C@]1(NC(=O)c2cnccn2)C[C@H]2CN(CCc3c([nH]c4ccccc34)[C@@](C(=O)OC)(c3cc4c(cc3OC)N(C)[C@H]3[C@@](O)(C(=O)OC)[C@H](OC(C)=O)[C@]5(CC)C=CCN6CC[C@]43[C@@H]65)C2)C1	550
0.7	0.7	CC[C@]1(NC(=O)/C=C/c2ccccn2)C[C@H]2CN(CCc3c([nH]c4ccccc34)[C@@](C(=O)OC)(c3cc4c(cc3OC)N(C)[C@H]3[C@@](O)(C(=O)OC)[C@H](OC(C)=O)[C@]5(CC)C=CCN6CC[C@]43[C@@H]65)C2)C1	25
0.8	0.6	CC[C@]1(NC(=O)c2cccc(OC)c2)C[C@H]2CN(CCc3c([nH]c4ccccc34)[C@@](C(=O)OC)(c3cc4c(cc3OC)N(C)[C@H]3[C@@](O)(C(=O)OC)[C@H](OC(C)=O)[C@]5(CC)C=CCN6CC[C@]43[C@@H]65)C2)C1	8.7
2.7	4.2	CC[C@]1(NC(=O)c2cccc(Cl)c2)C[C@H]2CN(CCc3c([nH]c4ccccc34)[C@@](C(=O)OC)(c3cc4c(cc3OC)N(C)[C@H]3[C@@](O)(C(=O)OC)[C@H](OC(C)=O)[C@]5(CC)C=CCN6CC[C@]43[C@@H]65)C2)C1	20
7.7	8.4	CC[C@]1(NC(=O)c2ccccc2F)C[C@H]2CN(CCc3c([nH]c4ccccc34)[C@@](C(=O)OC)(c3cc4c(cc3OC)N(C)[C@H]3[C@@](O)(C(=O)OC)[C@H](OC(C)=O)[C@]5(CC)C=CCN6CC[C@]43[C@@H]65)C2)C1	75
6.2	5.1	CC[C@]1(NC(=O)c2ccc(OC)c(Br)c2)C[C@H]2CN(CCc3c([nH]c4ccccc34)[C@@](C(=O)OC)(c3cc4c(cc3OC)N(C)[C@H]3[C@@](O)(C(=O)OC)[C@H](OC(C)=O)[C@]5(CC)C=CCN6CC[C@]43[C@@H]65)C2)C1	40
90	70	CC[C@]1(NC(=O)C(C)C)C[C@H]2CN(CCc3c([nH]c4ccccc34)[C@@](C(=O)OC)(c3cc4c(cc3OC)N(C)[C@H]3[C@@](O)(C(=O)OC)[C@H](OC(C)=O)[C@]5(CC)C=CCN6CC[C@]43[C@@H]65)C2)C1	1400
6.1	4.9	CCSc1ccc(C(=O)N[C@@]2(CC)C[C@H]3CN(CCc4c([nH]c5ccccc45)[C@@](C(=O)OC)(c4cc5c(cc4OC)N(C)[C@H]4[C@@](O)(C(=O)OC)[C@H](OC(C)=O)[C@]6(CC)C=CCN7CC[C@]54[C@@H]76)C3)C2)cc1	35
0.6	0.6	CC[C@]1(NC(=O)c2ccc(OC(C)(C)C)cc2)C[C@H]2CN(CCc3c([nH]c4ccccc34)[C@@](C(=O)OC)(c3cc4c(cc3OC)N(C)[C@H]3[C@@](O)(C(=O)OC)[C@H](OC(C)=O)[C@]5(CC)C=CCN6CC[C@]43[C@@H]65)C2)C1	6.8
420	360	CC[C@]1(NS(=O)(=O)c2ccccc2[N+](=O)[O-])C[C@H]2CN(CCc3c([nH]c4ccccc34)[C@@](C(=O)OC)(c3cc4c(cc3OC)N(C)[C@H]3[C@@](O)(C(=O)OC)[C@H](OC(C)=O)[C@]5(CC)C=CCN6CC[C@]43[C@@H]65)C2)C1	440
5.9	4.8	CC[C@]1(NC(=O)c2cccc(OC(F)(F)F)c2)C[C@H]2CN(CCc3c([nH]c4ccccc34)[C@@](C(=O)OC)(c3cc4c(cc3OC)N(C)[C@H]3[C@@](O)(C(=O)OC)[C@H](OC(C)=O)[C@]5(CC)C=CCN6CC[C@]43[C@@H]65)C2)C1	50
8.7	8.5	CC[C@]1(NC(=O)c2ccc(Cl)c(Cl)c2)C[C@H]2CN(CCc3c([nH]c4ccccc34)[C@@](C(=O)OC)(c3cc4c(cc3OC)N(C)[C@H]3[C@@](O)(C(=O)OC)[C@H](OC(C)=O)[C@]5(CC)C=CCN6CC[C@]43[C@@H]65)C2)C1	80
